Assay results taken from patent US12194080B2, “Methods for identification, assessment, prevention, and treatment of metabolic disorders using PM20D1 and N-lipidated amino acids” (Dana-Farber Cancer Institute, Inc., priority 2015, dated 2025).
Entries after “also recorded” stand apart in the source; their conditions may differ.

Target: T1, mouse PM20D1 (Mus musculus, UniProt Q8C165)
T1 construct: Full-length mouse Pm20d1 cDNA (GE Dharmacon) was subcloned with an in-frame C-terminal 6× His and FLAG® tag; made in house; host or cells: 293A (HEK293A) cells stably infected with retrovirus
T1 sequence (Q8C165 25-503): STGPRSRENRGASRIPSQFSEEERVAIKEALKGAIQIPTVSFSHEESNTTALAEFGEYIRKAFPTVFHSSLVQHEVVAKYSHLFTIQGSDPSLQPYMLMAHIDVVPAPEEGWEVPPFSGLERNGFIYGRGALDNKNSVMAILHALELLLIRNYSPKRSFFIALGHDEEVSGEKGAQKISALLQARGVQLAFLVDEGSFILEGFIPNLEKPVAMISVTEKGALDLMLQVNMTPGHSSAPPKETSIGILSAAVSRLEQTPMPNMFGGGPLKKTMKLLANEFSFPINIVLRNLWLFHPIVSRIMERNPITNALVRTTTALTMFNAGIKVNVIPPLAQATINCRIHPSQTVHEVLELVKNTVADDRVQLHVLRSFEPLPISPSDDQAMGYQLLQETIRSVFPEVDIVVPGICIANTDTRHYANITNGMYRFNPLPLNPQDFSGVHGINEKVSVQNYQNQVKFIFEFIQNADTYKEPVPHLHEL
Assay: In vitro PM20D1-catalyzed N-acyl amino acid hydrolysis
Type: biochemical
Conditions: N-acyl amide substrate 100 μM
Procedure: The concentrated media was centrifuged to remove debris (600×g, 10 min, 4° C.) and the supernatant containing PM20D1-flag was decanted into a new tube. PM20D1-Flag was immunoaffinity purified overnight at 4° C. from the concentrated media using magnetic Flag-M2 beads (Sigma Aldrich). The beads were collected, washed three times in PBS, eluted with 3× Flag peptide ([…] in PBS, Sigma Aldrich), aliquoted, and stored at −80° C. For the purification of human PM20D1-flag, hPM20D1-flag plasmid (Origene) was transiently transfected into 293A cells. After two days, the media was changed, harvested 24 h later, concentrated, and purified exactly as described above.
In vitro PM20D1-catalyzed synthesis of N-acyl amino acids was measured by incubating purified PM20D1 protein with oleate (1.5 mM) and phenylalanine (0.1 mM) in PBS (to 100 μl final volume) at 37° C. for 1.5 hrs. In vitro PM20D1-catalyzed N-acyl amino acid hydrolysis was measured by incubating purified PM20D1 protein with the indicated N-acyl amino acid (0.1 mM) in PBS (to 100 μl final volume) at 37° C. for 1.5 hrs. Reactions were terminated by placing the vials at −80° C. and the products generated in vitro were analyzed by mass spectroscopy (MS).
Briefly, frozen serum (30 μl) for polar metabolomic analyses were extracted in 160 μl of 1:1 acetonitrile/methanol with inclusion of internal standard D3, ^15N-serine (1 nmol). Activity assays (100 μl) were extracted in 400 μl 1:1 acetonitrile/methanol. Following 30 s of thorough vortexing and 1 min of bath sonication, the polar metabolite fraction (supernatant) was isolated by centrifugation at 13,000×g for 10 min. Ten μl of this supernatant was analyzed by SRM-based targeted LC-MS/MS, or untargeted LC-MS.
For separation of polar metabolites, normal-phase chromatography was performed with a […] column (50 mm×4.60 mm, Phenomenex). Mobile phases were as follows: Buffer A, acetonitrile; Buffer B, 95:5 water/acetonitrile with 0.1% formic acid or 0.2% ammonium hydroxide with 50 mM ammonium acetate for positive and negative ionization mode, respectively. The flow rate for each run started at 0.2 ml/min for 2 min, followed by a gradient starting at 0% B and increasing linearly to 100% B over the course of 15 min with a flow rate of 0.7 ml/min, followed by an isocratic gradient of 100% B for 10 min at 0.7 ml/min before equilibrating for 5 min at 0% B with a flow rate of 0.7 ml/min. MS analysis was performed with an electrospray ionization (ESI) source on an Agilent 6430 QQQ LC—MS/MS. The capillary voltage was set to 3.5 kV, and the fragmentor voltage was set to 100 V. The drying gas temperature was 325° C., the drying gas flow rate was 10 l/min, and the nebulizer pressure was 45 psi. For polar targeted and untargeted metabolomic analysis, representative metabolites were quantified by SRM of the transition from precursor to product ions (corresponding to amino acid fragment) at associated collision energies. Several representative fragmentation ions are as follows: C18:1-Ala, 352>88; C18:1-Gly, 338>74; C18:1-Phe, 428>164; C18:1-Leu/Ile, 394>130; C20:4-Phe, 450>164; C20:4-Leu/Ile, 416>130. Untargeted LC-MS was performed by scanning a mass range of m/z 50-1200, and data were exported as mzdata files and uploaded to XCMSOnline (xcmsserver.nutr.berkeley.edu) to identify metabolites that were differentially changed. For targeted metabolomics analysis, metabolites were quantified by integrating the area under the peak and were normalized to internal standard values corresponding to 1 nmol D3, ^15N-serine.

With CCCCCCCC/C=C\CCCCCCCC(=O)N[C@@H](Cc1ccccc1)C(=O)O [C18:1-Phe, Oleoyl-L-phenylalanine] the “substrate of the PM20D1 hydrolysis reaction” value was “substrates; also recorded: liberated free oleate”.
